What is called GI50 is the concentration at which growth is held to half of that of the control.

The test deals with SK-BR-3 cancer cells. Put plainly: Inhibitory activity against proliferation of SK-BR-3 cancer cells (CellTiter-Glo). Format: cell-based. As to conditions: Homo sapiens, SK-BR-3, 120 h, ErbB2-overexpressing SK-BR-3 cells, 120 hours after treatment. The procedure:
To evaluate the inhibitory activity of a compound according to the present invention against the proliferation of ErbB2-overexpressing cancer cells, the following experiment were performed.
10% FBS-added McCOY'S 5A was used for SK-BR-3 cancer cells. 20% FBS-added RPMI-1640 was used for BT-474 cancer cells. Transduced Ba/F3 cells were cultured in a RPMI-1640 medium to which 1 μg/ml puromycin (Invitrogen) was added.
48 hours before compound treatment, each type of the SK-BR-3 and BT-474 cells were seeded at 5,000 cells/well in a white clear bottom 96 well plate (Corning). The compound was diluted in dimethyl sulfoxide (SK-BR-3: 3-fold dilution, a total of 12 concentrations, BT-474: […], a total of 12 concentrations) and injected at 1 μl to have the final concentration of 0.2 nM to 5 μM. As for measurement of live cells, 120 hours after treatment with the compound, a CellTiter-Glo luminescent cell-viability reagent (Promega) was used to store the cells at room temperature for 10 minutes, followed by measurement of luminescence using a reader (SynergyNeo, Biotek). Each test was repeated three times.
The result values were calculated as a cell growth rate (%) compared to the control group. A graph was plotted using the GraphPad Prism version 8.3.0 program, and GI50 values were calculated.
For the molecule `C=CC(=O)Nc1cc(Nc2cc(N3OCC[C@@H]3c3cc(F)cc(-c4cccnc4)c3)ncn2)c(OC)cc1N1CCN(C)CC1` [Example 177, (R)-N-(5-((6-(3-(3-fluoro-5-(pyr-idin-3-yl)phenyl)-isoxazolidin-2-yl)-pyrimidin-4-yl)-amino)-4-meth-oxy-2-(4-methyl-piperazin-1-yl)-phenyl)acrylamide], the GI50 lay in the range of 50 to 500 nM.

In the case of `C=CC(=O)Nc1cc(Nc2cc(N3OCC[C@@H]3c3cc(F)cc(-c4cccnc4)c3)ncn2)c(OC)cc1N(C)CCN(C)C` [Example 178, (R)-N-(2-((2-(dimethylamino)-ethyl)(methyl)-amino)-5-((6-(3-(3-fluoro-5-(pyr-idin-3-yl)phenyl)-isoxazolidin-2-yl)-pyrimidin-4-yl)-amino)-4-methoxy-phenyl)acrylamide], the GI50 was less than 50 nM.

Consider `C=CC(=O)Nc1cc(Nc2cc(N3OCCC3c3cccc(-c4cccs4)c3)ncn2)c(OC)cc1N1CCC(N2CCN(C3CC3)CC2)CC1` (stereo not shown) [Example 182, N-(2-(4-(4-cyclo-propylpiperazin-1-yl)piperidin-1-yl)-4-methoxy-5-((6-(3-(3-(thiophen-2-yl)phenyl)isoxazol-idin-2-yl)pyrim-idin-4-yl)amino)-phenyl)acrylamide], for which the GI50 is less than 50 nM.

For the molecule `C=CC(=O)Nc1cc(Nc2cc(N3OCC[C@@H]3c3cccc(C(=O)OC4CCCCC4)c3)ncn2)c(OC)cc1N1CCC(N2CCN(C3CC3)CC2)CC1` [Example 185, cyclohexyl (R)-3-(2-(6-((5-acryl-amido-4-(4-(4-cyclopropylpiper-azin-1-yl)piper-idin-1-yl)-2-meth-oxyphenyl)amino)-pyrimidin-4-yl)-isoxazolidin-3-yl)-benzoate], the 50% growth inhibitory concentration (GI50) was in the range of 50 to 500 nM.

As for `C=CC(=O)Nc1cc(Nc2cc(N3OCC[C@@H]3c3cccc(-c4ccccc4)c3)ncn2)c(OC)cc1N1CCC(N2CCN(C3CC3)CC2)CC1` [Example 190, (R)-N-(5-((6-(3-([1,1′-biphenyl]-3-yl)isoxazolidin-2-yl)pyrimidin-4-yl)-amino)-2-(4-(4-cyclopropylpiper-azin-1-yl)piper-idin-1-yl)-4-meth-oxyphenyl)acryl-amide], the GI50 is less than 50 nM.

As for `C=CC(=O)Nc1cc(Nc2cc(N3OCC[C@@H]3c3cc(F)cc(Oc4cccc(F)c4)c3)ncn2)c(OC)cc1N1CCN(C)CC1` [Example 191, (R)-N-(5-((6-(3-(3-fluoro-5-(3-fluoro-phenoxy)phenyl)-isoxazolidin-2-yl)-pyrimidin-4-yl)-amino)-4-meth-oxy-2-(4-methyl-piperazin-1-yl)-phenyl)acrylamide], the concentration for 50% growth inhibition (GI50) fell in the range of 50 to 500 nM.

Consider `C=CC(=O)Nc1cc(Nc2cc(N3OCC[C@@H]3c3cc(F)cc(-c4ccsc4)c3)ncn2)c(OC)cc1N1CCN(C)CC1` [Example 193, (R)-N-(5-((6-(3-(3-fluoro-5-(thiophen-3-yl)phenyl)isox-azolidin-2-yl)pyr-imidin-4-yl)amino)-4-methoxy-2-(4-methylpiperazin-1-yl)phenyl)acryl-amide], for which the concentration for 50% growth inhibition (GI50) was less than 50 nM.

Consider `C=CC(=O)Nc1cc(Nc2cc(N3OCC[C@@H]3c3cc(F)cc(-c4ccsc4)c3)ncn2)c(OC)cc1N(C)CCN(C)C` [Example 194, (R)-N-(2-((2-(dimethylamino)-ethyl)(methyl)-amino)-5-((6-(3-(3-fluoro-5-(thio-phen-3-yl)phenyl)-isoxazolidin-2-yl)-pyrimidin-4-yl)-amino)-4-methoxy-phenyl)acrylamide], for which the GI50 was less than 50 nM.

Take `C=CC(=O)Nc1cc(Nc2cc(N3OCC[C@@H]3c3cc(F)cc(OCc4ccccn4)c3)ncn2)c(OC)cc1N1CCN(C)CC1` [Example 195, (R)-N-(5-((6-(3-(3-fluoro-5-(pyr-idin-2-ylmethoxy)-phenyl)isoxazol-idin-2-yl)pyrim-idin-4-yl)amino)-4-methoxy-2-(4-methylpiperazin-1-yl)phenyl)-acrylamide]: the GI50 is less than 50 nM.

In the case of `C=CC(=O)Nc1cc(Nc2cc(N3OCC[C@@H]3c3cc(F)cc(OCc4ccccn4)c3)ncn2)c(OC)cc1N(C)CCN(C)C` [Example 196, (R)-N-(2-((2-(dimethylamino)-ethyl)(methyl)-amino)-5-((6-(3-(3-fluoro-5-(pyr-idin-2-ylmethoxy)-phenyl)isoxazol-idin-2-yl)pyrim-idin-4-yl)amino)-4-methoxyphen-yl)acrylamide], the GI50 was less than 50 nM.

Take `C=CC(=O)Nc1cc(Nc2cc(N3OCCC3c3cccc(-c4ccc5ncnn5c4)c3)ncn2)c(OC)cc1N1CCN(C)CC1` (stereo not shown) [Example 197, N-(5-((6-(3-(3-([1,2,4]triazolo-[1,5-a]pyridin-6-yl)phenyl)isoxazol-idin-2-yl)pyrim-idin-4-yl)amino)-4-methoxy-2-(4-methylpiperazin-1-yl)phenyl)-acrylamide]: the GI50 is less than 50 nM.

Take `C=CC(=O)Nc1cc(Nc2cc(N3OCCC3c3cccc(-c4ccc5ncnn5c4)c3)ncn2)c(OC)cc1N(C)CCN(C)C` (stereo not shown) [Example 198, N-(5-((6-(3-(3-([1,2,4]triazolo-[1,5-a]pyridin-6-yl)phenyl)isoxazol-idin-2-yl)pyrim-idin-4-yl)amino)-2-((2-(dimethyl-amino)ethyl)-(methyl)amino)-4-methoxyphen-yl)acrylamide]: the GI50 was less than 50 nM.

On to `C=CC(=O)Nc1cc(Nc2cc(N3OCC[C@@H]3c3cc(F)cc(Oc4cccc(F)c4)c3)ncn2)c(OC)cc1N(C)CCN(C)C` [Example 199, (R)-N-(2-((2-(dimethylamino)-ethyl)(methyl)-amino)-5-((6-(3-(3-fluoro-5-(3-fluorophenoxy)-phenyl)isoxazol-idin-2-yl)pyrim-idin-4-yl)amino)-4-methoxyphen-yl)acrylamide], for which the GI50 was 50 to 500 nM.

As for `C=CC(=O)Nc1cc(Nc2cc(N3OCCC3c3cccc(-c4cnc5ccnn5c4)c3)ncn2)c(OC)cc1N(C)CCN(C)C` (stereo not shown) [Example 202, N-(2-((2-(dimethyl-amino)ethyl)-(methyl)amino)-4-methoxy-5-((6-(3-(3-(pyrazolo[1,5-a]pyrimidin-6-yl)-phenyl)isoxazol-idin-2-yl)pyrim-idin-4-yl)amino)-phenyl)acrylamide], the GI50 was less than 50 nM.

Consider `C=CC(=O)Nc1cc(Nc2cc(N3OCCC3c3cccc(-c4cccn5ccnc45)c3)ncn2)c(OC)cc1N1CCN(C)CC1` (stereo not shown) [Example 203, N-(5-((6-(3-(3-(imidazo[1,2-a]-pyridin-8-yl)phen-yl)isoxazolidin-2-yl)pyrimidin-4-yl)amino)-4-meth-oxy-2-(4-methyl-piperazin-1-yl)-phenyl)acrylamide], for which the GI50 is less than 50 nM.

`C=CC(=O)Nc1cc(Nc2cc(N3OCCC3c3cccc(-c4cccn5ccnc45)c3)ncn2)c(OC)cc1N(C)CCN(C)C` (stereo not shown) [Example 204, N-(2-((2-(dimeth-ylamino)ethyl)-(methyl)amino)-5-((6-(3-(3-(imidazo-[1,2-a]pyridin-8-yl)phenyl)isoxazol-idin-2-yl)pyrim-idin-4-yl)amino)-4-methoxyphen-yl)acrylamide]: the GI50 was less than 50 nM.

For the molecule `C=CC(=O)Nc1cc(Nc2cc(N3OCC[C@@H]3c3cc(F)cc(-c4cccc(F)c4)c3)ncn2)c(OC)cc1N1CCC(N2CCN(C3CC3)[C@H](C)C2)CC1` [Example 206], the GI50 lay in the range of 500 to 5000 nM.

In the case of `C=CC(=O)Nc1cc(Nc2cc(N3OCC[C@@H]3c3cc(F)cc(-c4cccc(F)c4)c3)ncn2)c(OC)cc1N1CCC(N2CCOCC2)CC1` [Example 207, (R)-N-(5-((6-(3-(3′,5-difluoro-[1,1′-biphenyl]-3-yl)isoxazolidin-2-yl)pyrimidin-4-yl)-amino)-4-methoxy-2-(4-morpholino-piperidin-1-yl)-phenyl)acrylamide], the GI50 was less than 50 nM.

As to `C=CC(=O)Nc1cc(Nc2cc(N3OCC[C@@H]3c3cc(F)cc(-c4cccc(F)c4)c3)ncn2)c(OC)cc1N(C)CCN(C)C` [Example 208, (R)-N-(5-((6-(3-(3′,5-difluoro-[1,1′-biphenyl]-3-yl)-isoxazolidin-2-yl)-pyrimidin-4-yl)-amino)-2-((2-(dimethylamino)-ethyl)(methyl)-amino)-4-methoxy-phenyl)acrylamide], the GI50 was less than 50 nM.

For `C=CC(=O)Nc1cc(Nc2cc(N3OCC[C@@H]3c3cc(F)cc(-c4cccc5ncnn45)c3)ncn2)c(OC)cc1N1CCN(C)CC1` [Example 209, (R)-N-(5-((6-(3-(3-([1,2,4]triazolo-[1,5-a]pyridin-5-yl)-5-fluorophen-yl)isoxazolidin-2-yl)pyrimidin-4-yl)-amino)-4-methoxy-2-(4-methylpiper-azin-1-yl)phenyl)-acrylamide], the GI50 is less than 50 nM.

On to `C=CC(=O)Nc1cc(Nc2cc(N3OCC[C@@H]3c3cc(F)cc(-c4cccc5ncnn45)c3)ncn2)c(OC)cc1N(C)CCN(C)C` [Example 210, (R)-N-(5-((6-(3-(3-([1,2,4]triazolo-[1,5-a]pyridin-5-yl)-5-fluorophen-yl)isoxazolidin-2-yl)pyrimidin-4-yl)-amino)-2-((2-(dimethylamino)-ethyl)(methyl)-amino)-4-methoxy-phenyl)acrylamide], for which the GI50 is less than 50 nM.

Regarding `C=CC(=O)Nc1cc(Nc2cc(N3OCCC3c3cccc(-c4cccc(F)c4)c3)ncn2)c(OC)cc1N1CCN(C)CC1` (stereo not shown) [Example 211, N-(5-((6-(3-(3′-fluoro-[1,1′-biphenyl]-3-yl)-isoxazolidin-2-yl)-pyrimidin-4-yl)-amino)-4-methoxy-2-(4-methylpiper-azin-1-yl)phenyl)-acrylamide], the GI50 fell in the range of 50 to 500 nM.

The values are drawn from patent US20240262815A1, “HETEROARYL DERIVATIVE, METHOD FOR PREPARING SAME, AND PHARMACEUTICAL COMPOSITION COMPRISING SAME AS ACTIVE INGREDIENT” (VORONOI INC., priority 2021, published 2024).
